Data from ChEMBL document CHEMBL6153138, “Discovery of Novel Aromatic Urea-Imidazole Salt Derivatives for Cancer Therapy via Targeting ERK1/2” (J Med Chem, 2025).
Activity calls are given as the source filed them. The rule behind the calls is not given here.

Tests used:
MCF7 [1] = assay: Induction of autophagy in human MCF7 cells assessed as increase in LC3B expression at 0.5 to 2 uM by immunofluorescence analysis; type: functional, cell-based; details: dose 0.5-2 µM
4T1 [2] = assay: Antitumor activity against mouse 4T1 cells implanted in female BALB/c mouse model assessed as tumor growth inhibition at 50 mg/kg, po qd measured for 18 days relative to control; type: functional; details: 4T1, 432 h, time 18 day, read-out: TGI
MCF7 [3] = assay: Induction of autophagy in human MCF7 cells assessed as increase in LC3B expression at 1 uM incubated for 48 hrs in presence of 3-methyladenine by Western blot analysis; type: functional, cell-based
MCF7 [4] = assay: Induction of apoptosis in human MCF7 cells assessed as increase in PARP1 level at 0.5 to 2 uM by Western blot analysis; type: functional, cell-based; details: dose 0.5-2 µM
Mitochondrial membrane [5] = assay: Induction of mitochondrial membrane potential loss in human MCF7 cells assessed as increase in JC-1 monomers by measuring increase in green fluorescence at 0.5 uM by flow cytometry analysis (reference value: 38.0%); type: cell membranes
MDA-MB-468 = assay: Antiproliferative activity against human MDA-MB-468 cells incubated for 48 hrs by CCK-8 method; type: functional, cell-based; details: MDA-MB-468, 48 h
[6] = target: Mitogen-activated protein kinase 3 (Homo sapiens, UniProt P27361); assay: Binding affinity to ERK1 (unknown origin) assessed as dissociation constant by MST analysis
Mitogen-activated protein kinase 3, sequence (P27361 whole entry): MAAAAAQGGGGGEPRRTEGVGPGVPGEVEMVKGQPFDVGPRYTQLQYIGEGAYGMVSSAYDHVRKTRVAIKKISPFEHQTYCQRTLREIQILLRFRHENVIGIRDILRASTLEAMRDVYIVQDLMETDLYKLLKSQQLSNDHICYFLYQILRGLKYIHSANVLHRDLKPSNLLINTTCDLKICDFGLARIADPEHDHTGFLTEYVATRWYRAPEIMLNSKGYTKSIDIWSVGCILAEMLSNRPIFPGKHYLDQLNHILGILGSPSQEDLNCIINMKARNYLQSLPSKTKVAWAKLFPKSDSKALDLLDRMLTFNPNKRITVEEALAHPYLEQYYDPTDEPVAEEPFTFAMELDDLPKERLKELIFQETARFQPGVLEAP

4T1 [7] = assay: Antitumor activity against mouse 4T1 cells implanted in female BALB/c mouse model assessed as tumor growth inhibition at 25 mg/kg, po qd measured for 18 days relative to control; type: functional; details: 4T1, 432 h, time 18 day, read-out: TGI
[8] = Toxicity in female BALB/c mouse assessed as effect on lung at 25 to 50 mg/kg, po qd measured after 18 days by H and E staining based analysis; type: organism-based; details: in vivo, 432 h, dose 25-50 mg/kg, time 18 day
MCF7 [9] = assay: Induction of autophagic flux in human MCF7 cells assessed as increase in LC3B-II expression at 1 uM incubated for 48 hrs in presence of chloroquine by Western blot analysis; type: functional, cell-based
MCF7 [10] = assay: Inhibition of cell invasion in human MCF7 cells at incubated for 48 hrs by crystal violet staining based assay; type: functional; details: dose 0.5-2 µM
[11] = Toxicity in female BALB/c mouse assessed as effect CHO level in serum at 25 to 50 mg/kg, po qd measured after 18 days by biochemical analysis; type: organism-based; details: in vivo, 432 h, dose 25-50 mg/kg, time 18 day
Mitochondrial membrane [12] = assay: Induction of mitochondrial membrane potential loss in human MCF7 cells assessed as reduction in JC-1 aggregates by measuring decrease in red fluorescence at 2 uM by flow cytometry analysis (reference value: 24.7%); type: cell membranes; parameters: scale not given: the % may be the effect or the level left
Mitochondrial membrane [13] = assay: Induction of mitochondrial membrane potential loss in human MCF7 cells assessed as reduction in JC-1 aggregates by measuring decrease in red fluorescence at 0.5 uM by flow cytometry analysis (reference value: 24.7%); type: cell membranes; parameters: scale not given: the % may be the effect or the level left
MCF7 [14] = assay: Inhibition of colony formation in human MCF7 cells harbouring ERK1 knockout at 1 uM incubated for 48 hrs by crystal violet staining based microscopic analysis; type: functional, cell-based
MCF7 [15] = assay: Upregulation of caspase3 protein expression in human MCF-7 cells at 1 uM incubated for 6 hrs in presence of chloroquine by Western blot analysis; type: functional, cell-based
4T1 [16] = assay: Antitumor activity against mouse 4T1 cells implanted in female BALB/c mouse model assessed as reduction in tumor growth administered po qd measured for 18 days; type: functional, organism-based; details: dose 25-50 mg/kg, time 18.0 day
[17] = AUC (0 to infinity) in Sprague-Dawley rat at 10 mg/kg, po by LC-MS/MS analysis; type: ADME, organism-based; details: in vivo
MCF7 [18] = assay: Induction of autophagy in human MCF7 cells assessed as increase in AMPK phosphorylation level at 0.5 to 2 uM incubated for 48 hrs by Western blotting analysis; type: functional, cell-based; details: dose 0.5-2 µM
[19] = Toxicity in female BALB/c mouse assessed as effect on lung at 50 mg/kg, po qd measured after 18 days in presence of chloroquine by H and E staining based analysis; type: organism-based; details: in vivo, 432 h, time 18 day
[20] = Toxicity in female BALB/c mouse assessed as effect on liver at 25 to 50 mg/kg, po qd measured after 18 days by H and E staining based analysis; type: organism-based; details: in vivo, 432 h, dose 25-50 mg/kg, time 18 day
[21] = target: Ribosomal protein S6 kinase alpha-1 (Homo sapiens, UniProt Q15418); assay: Inhibition of human RSK1 at 10000 nM by DiscoverX KINOMEscan assay relative to control
Ribosomal protein S6 kinase alpha-1, sequence (Q15418 whole entry): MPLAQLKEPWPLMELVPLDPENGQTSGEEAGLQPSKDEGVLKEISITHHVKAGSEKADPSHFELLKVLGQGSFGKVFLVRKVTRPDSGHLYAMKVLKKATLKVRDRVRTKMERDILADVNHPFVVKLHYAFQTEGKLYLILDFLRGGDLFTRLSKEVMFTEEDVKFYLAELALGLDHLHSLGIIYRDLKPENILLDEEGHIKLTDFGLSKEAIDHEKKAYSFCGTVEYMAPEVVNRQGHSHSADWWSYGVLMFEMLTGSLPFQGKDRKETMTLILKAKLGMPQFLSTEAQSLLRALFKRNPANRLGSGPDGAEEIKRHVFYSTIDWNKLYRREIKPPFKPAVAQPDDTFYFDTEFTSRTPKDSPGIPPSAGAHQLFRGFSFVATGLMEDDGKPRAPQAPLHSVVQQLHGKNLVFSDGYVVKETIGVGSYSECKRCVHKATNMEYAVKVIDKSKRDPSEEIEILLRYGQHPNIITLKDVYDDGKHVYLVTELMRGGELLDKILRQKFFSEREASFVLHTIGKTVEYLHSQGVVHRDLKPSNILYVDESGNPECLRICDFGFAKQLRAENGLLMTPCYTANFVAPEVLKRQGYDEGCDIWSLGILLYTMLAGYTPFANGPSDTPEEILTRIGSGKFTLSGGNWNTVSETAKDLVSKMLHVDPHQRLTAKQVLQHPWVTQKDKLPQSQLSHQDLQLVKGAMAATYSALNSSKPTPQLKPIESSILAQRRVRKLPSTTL

MCF7 [22] = assay: Effect on MEK1/2 phosphorylation expression in human MCF7 cells at 0.5 to 2 uM measured after 30 mins to 4 hrs by Western blot analysis; type: functional, cell-based; details: dose 0.5-2 µM, time 30-240 min
MCF7 [23] = assay: Inhibition of colony formation in human MCF7 cells at 1 uM incubated for 6 hrs in presence of chloroquine by crystal violet staining based analysis; type: functional, cell-based
A-375 = assay: Antiproliferative activity against human A-375 cells expressing B-Raf V600E mutant; type: functional, cell-based
MCF7 [24] = assay: Antiproliferative activity against human MCF7 cells harbouring ERK2 knockout incubated for 48 hrs by CCK-8 method; type: functional, cell-based
MCF7 [25] = assay: Upregulation of caspase3 protein expression in human MCF-7 cells at 1 uM incubated for 6 hrs in presence of 3-methyladenine by Western blot analysis; type: functional, cell-based
[26] = Half life in Sprague-Dawley rat at 10 mg/kg, po by LC-MS/MS analysis; type: ADME, organism-based; details: in vivo
MCF7 [27] = assay: Induction of apoptosis in human MCF7 cells assessed as late apoptotic cells at 1 uM incubated for 48 hrs in presence of 3-methyladenine by Annexin V/FITC and PI staining based flow cytometry analysis (reference value: 6.21%); type: functional
MCF7 [28] = assay: Downregulation of p90RSK phosphorylation expression in human MCF7 cells at 0.5 to 2 uM measured after 30 mins to 4 hrs by Western blot analysis; type: functional, cell-based; details: dose 0.5-2 µM, time 30-240 min
[29] = AUC (0 to t) in Sprague-Dawley rat at 10 mg/kg, po by LC-MS/MS analysis; type: ADME, organism-based; details: in vivo
[30] = Toxicity in female BALB/c mouse assessed as effect on tumor at 50 mg/kg, po qd measured after 18 days in presence of chloroquine by H and E staining based analysis; type: organism-based; details: in vivo, 432 h, time 18 day
4T1 [31] = assay: Antitumor activity against mouse 4T1 cells implanted in female BALB/c mouse model assessed as increase in LC3B expression administered as po by immunohistochemical analysis; type: functional, organism-based; details: dose 25-50 mg/kg
MCF7 [32] = assay: Activation of ERK1/2 pathway in human MCF7 cells assessed as increase in EGF-induced p90RSK phosphorylation at 2 uM incubated for 30 mins by Western blot analysis; type: cell-based
MCF7 [33] = assay: Downregulation of c-Myc phosphorylation expression in human MCF7 cells at 0.5 to 2 uM measured after 30 mins to 4 hrs by Western blot analysis; type: functional, cell-based; details: dose 0.5-2 µM, time 30-240 min

## O=C(Nc1cc(C(F)(F)F)cc(C(F)(F)F)c1)N[C@@H](Cc1ccccc1)Cn1c[n+](Cc2ccc3ccccc3c2)c2ccccc21.[Br-]
MCF7 [1]
  Activity: Dose-dependent-effect
4T1 [2]
  inhibition in vivo at 50 mg/kg: 54.9%
MCF7 [3]
  Activity: inactive
MCF7 [4]
  Activity: Active
Mitochondrial membrane [5]
  Activity: 46.6%
MDA-MB-468
  IC50: 2150 nM
[6]
  Kd: 159 nM
4T1 [7]
  inhibition in vivo at 25 mg/kg: 40.7%
[8]
  Activity: Non-toxic
MCF7 [9]
  Activity: Active
MCF7 [10]
  inhibition: Dose-dependent-effect
[11]
  Activity: Non-toxic
Mitochondrial membrane [12]
  Activity: 5.4%
Mitochondrial membrane [13]
  Activity: 17.2%
MCF7 [14]
  inhibition: inactive
MCF7 [15]
  Activity: Active
4T1 [16]
  Activity: Dose-dependent-effect
[17]
  AUC(0-inf): 4080 ng·h/mL
MCF7 [18]
  Activity: Active
[19]
  Activity: Non-toxic
[20]
  Activity: Non-toxic
[21]
  inhibition: 8%
MCF7 [22]
  Activity: inactive
MCF7 [23]
  inhibition: Active
A-375
  IC50: 750 nM
MCF7 [24]
  Activity: Not active; Compound Showed Less Sensitivity Response
MCF7 [25]
  Activity: Active
[26]
  half-life: 2.51 h
MCF7 [27]
  Activity: 25.1%
MCF7 [28]
  Activity: Active
[29]
  AUC(0-t): 3910 ng·h/mL
[30]
  Activity: Non-toxic
4T1 [31]
  Activity: Dose-dependent-effect
MCF7 [32]
  Activity: inactive
MCF7 [33]
  Activity: Active
